# Measured values from US5948791A, “Quinoline derivatives for treating malaria” (Hoffmann-La Roche Inc., priority 1995, dated 1999).
# Structures can show the parent of a compound that is named as a salt. Where two headings read alike, the source gives them in different places.
# What was measured:
# [1] = tested on: Plasmodium falciparum strain NF54; experiment: Growth inhibition of Plasmodium falciparum NF54 (chloroquine-sensitive) in vitro, [G-3H]-hypoxanthin incorporation; assay type: cell-based; conditions: chloroquine-sensitive strain NF54, 72 h, read-out: IC50 for P. falciparum NF54
# Description: (§1) The ratio of the growth inhibition of a strain which is especially resistant to chloroquine and of a strain which is sensitive to chloroquine gives as the "resistance index" a measurement for the absence of a cross-resistance with chloroquine. Since, for all novel compounds the resistance index lies between 0.7 and 2.5, they inhibit the growth of sensitive as well as resistant strains of the malaria pathogen equally effectively. They are accordingly also suitable for the prophylaxis of a malaria disease and also for the treatment of a malaria disease even when chloroquine is ineffective. The good activity against malaria pathogens is also shown in animal experiments. The effective doses measured after oral and subcutaneous administration to mice infected with malaria pathogens are shown in Table 2 hereinafter.
# (§2) Test method for the determination of the activity against Plasmodium falciparum in vitro
# (§3) The preparations are tested on intraerythrocytary stages of Plasmodium falciparum from asynchronous cultures according to the method of Desjardin et al. (Desjardins, R. E. et al: Quantitative assessment of antimalarial activity in vitro by a semiautomated microdilution technique. Antimicrob. Agents Chemother. 16, 710-718, (1979)).
# (§4) The culture medium consists of RPMI 1640 with the addition of 25 mM HEPES, 25 mM NaHCO3, 100 μg/ml neomycin and […] (A^+). Human-A^+ erythrocytes are used as the Plasmodium falciparum host cells. The parasites are maintained at 37° C. in an atmosphere of 3% O2, 4% CO2, 93% N2 and 95% relative humidity.
# (§5) In order to determine the activity, the preparations are dissolved in DMSO, pre-diluted in the culture medium to a suitable starting concentration and subsequently titrated-out on to microtitre plates in the 2nd stage over 6-7 steps. After the addition of the parasite culture (0.7% parasitemia in 2.5% erythrocyte suspension) the test plates are incubated under the conditions given above for 72 h. The parasite growth in the different preparation concentrations is determined using [G-^3 H]-hypoxanthin incorporation compared to untreated control cultures on the same test plates. The 50% growth inhibition (IC50) is calculated according to logit regression analysis from the resulting dosage-activity curve.
# (§6) The preparations are tested on at least one chloroquine-resistant and one chloroquine-sensitive Plasmodium falciparum strain. Additional sensitive and resistant strains are included for further characterization.
# [2] = tested on: Plasmodium falciparum K1; experiment: Growth inhibition of Plasmodium falciparum K1 (chloroquine-resistant) in vitro, [G-3H]-hypoxanthin incorporation; assay type: cell-based, Plasmodium falciparum (strain K1); conditions: for IC50: Plasmodium falciparum, K1, 72 h, read-out: IC50 for P. falciparum K1; for Resistance index: ratio of the IC50 for K1 and the IC50 for NF54
# Description: as §1, §2, §3, §4, §5, §6
# [3] = tested on: Plasmodium berghei; experiment: animal or person; assay type: in vivo, Plasmodium berghei (strain ANKA) in mice; conditions: Plasmodium berghei, mice, blood smears 48 h after treatment
# Method: Test method for the determination of the activity against Plasmodium berghei in vivo
# The preparations are tested on mice infected with malaria pathogens (Plasmodium berghei). Male albino mice (IBM:MORO(SPF), FUELLINSDORF) weighing about 25 g are used as the test animals. They are kept in climatized rooms at 21-22° C. in groups of 5 animals per cage. They receive ad libitum a diet feed with a low PABA content (NAFAG FUTTER " No. 9009 PAB-45, PABA content 45 mg/kg) and drinking water. On the first day of the test (D0) the test animals are infected with Plasmodium berghei (strain ANKA). For this there is used heparinized blood of a donor mouse with about 30% parasitemia, which is diluted with physiological saline such that it contains 10^8 parasitized erythrocytes per ml. 0.2 ml of this suspension is injected intravenously (i.v.) into the mice to be treated and into the control mice.
# The substances to be tested are dissolved or suspended in distilled water or in a mixture of 7% Tween 80, 3% alcohol (96%) and water. Usually, 0.25 ml of this solution or suspension is administered once subcutaneously and perorally to groups of 5 test animals. Treatment is effected 24 hours after the infection. 10 control animals are treated in the same manner with solvent or suspension medium per test.
# All substances are tested in a first test in a single dosage of 10 mg/kg. Only those substances which in this test (10 mg/kg) have shown a parasitaemia reduction of 90% are used for the titration. Suitable dilutions of the test substance can be used to obtain an accurate titration of the activity.
# 48 hours after the treatment (D+3) blood smears are prepared from all animals using blood from tail veins and are stained with giemsa. […] The difference in the average values of the infection rates of control group (100%) and treated groups is calculated and expressed as a percentage reduction (GI%). The ED50 or ED90 is determined mathematically by means of the JMP programme (nonlinear fit). The ED50 (ED90) in mg/kg is that dose which after single administration reduces the average erythrocyte infection rate by 50% (90%) in comparison to the control group.
# [4] = po, single peroral dose of 10 mg/kg, read-out: Growth inhibition in % after po administration (GI%, percentage reduction of the parasitemia)
# [5] = sc, single subcutaneous dose of 10 mg/kg, read-out: Growth inhibition in % after sc administration (GI%, percentage reduction of the parasitemia)
smiles,measurement,setting,value
"Cl.Cl.Clc1ccc(CN[C@@H]2CC[C@H](Nc3ccnc4cc(Cl)ccc34)C2)cc1 (relative stereo) [Example 68, cis-N1-(7-Chloro-quinolin-4-yl)-N3-(4-chloro-benzyl)-cyclopentane-1,3-diamine dihydrochloride]",IC50,[1],0.0059 µg/mL
same,IC50,[2],0.0146 µg/mL
same,Resistance index,[2],2.5
same,inhibition in vivo at 10 mg/kg,[3]; [4],99.9%
same,inhibition in vivo at 10 mg/kg,[3]; [5],99.6%
"CCN(CC)Cc1cc(Nc2ccnc3cc(Cl)ccc23)ccc1O [Amodiaquine, reference compound]",IC50,[1],0.0025 µg/mL
same,IC50,[2],0.0035 µg/mL
"C[C@H](CNc1ccnc2cc(Cl)ccc12)NCc1ccc(N(C)C)cc1.Cl.Cl.Cl [Example 1, (2R)-N1-(7-Chloro-quinolin-4-yl)-N2-(4-dimethylamino-benzyl)-propane-1,2-diamine trihydrochloride]",IC50,[1],0.0126 µg/mL
same,IC50,[2],0.0175 µg/mL
same,Resistance index,[2],1.4
"C[C@@H](CNCc1ccc(N(C)C)cc1)Nc1ccnc2cc(Cl)ccc12.Cl.Cl.Cl [Example 2, (2S)-N2-(7-Chloro-quinolin-4-yl)-N1-(4-dimethylamino-benzyl)-propane-1,2-diamine trihydrochloride]",IC50,[1],0.0071 µg/mL
same,IC50,[2],0.0148 µg/mL
same,Resistance index,[2],2.1
"CC(C)(CNc1ccnc2cc(Cl)ccc12)NCc1cccc(Cl)c1Cl.Cl.Cl [Example 26, N1-(7-Chloro-quinolin-4-yl)-N2-(2,3-dichloro-benzyl)-2-methyl-propane-1,2-diamine dihydrochloride]",IC50,[1],0.0263 µg/mL
same,IC50,[2],0.0373 µg/mL
same,Resistance index,[2],1.4
"CC(C)(CNc1ccnc2cc(Cl)ccc12)NCc1cccc(O)c1.Cl.Cl [Example 32, N1-(7-Chloro-quinolin-4-yl)-N2-(3-hydroxy-benzyl)-2-methyl-propane-1,2-diamine dihydrochloride]",IC50,[1],0.0076 µg/mL
same,IC50,[2],0.0147 µg/mL
same,Resistance index,[2],1.9
"COc1ccccc1CNC(C)(C)CNc1ccnc2cc(Cl)ccc12.Cl.Cl [Example 34, N1-(7-Chloro-quinolin-4-yl)-N2-(2-methoxy-benzyl)-2-methyl-propane-1,2-diamine dihydrochloride]",IC50,[1],0.0072 µg/mL
same,IC50,[2],0.015 µg/mL
same,Resistance index,[2],2.1
"COc1ccc(CNC(C)(C)CNc2ccnc3cc(Cl)ccc23)cc1.Cl.Cl [Example 35, N1-(7-Chloro-quinolin-4-yl)-N2-(4-methoxy-benzyl)-2-methyl-propane-1,2-diamine dihydrochloride]",IC50,[1],0.0064 µg/mL
same,IC50,[2],0.0133 µg/mL
same,Resistance index,[2],2.1
"COc1cccc(CNC(C)(C)CNc2ccnc3cc(Cl)ccc23)c1OC.Cl.Cl [Example 36, N1-(7-Chloro-quinolin-4-yl)-N2-(2,3-dimethoxy-benzyl)-2-methyl-propane-1,2-diamine dihydrochloride]",IC50,[1],0.0162 µg/mL
same,IC50,[2],0.0207 µg/mL
same,Resistance index,[2],1.3
"COc1ccc(CNC(C)(C)CNc2ccnc3cc(Cl)ccc23)c(OC)c1.Cl.Cl [Example 37, N1-(7-Chloro-quinolin-4-yl)-N2-(2,4-dimethoxy-benzyl)-2-methyl-propane-1,2-diamine dihydrochloride]",IC50,[1],0.011 µg/mL
same,IC50,[2],0.011 µg/mL
same,Resistance index,[2],1.0
"COc1ccc(OC)c(CNC(C)(C)CNc2ccnc3cc(Cl)ccc23)c1.Cl.Cl [Example 38, N1-(7-Chloro-quinolin-4-yl)-N2-(2,5-dimethoxy-benzyl)-2-methyl-propane-1,2-diamine dihydrochloride]",IC50,[1],0.0101 µg/mL
same,IC50,[2],0.0151 µg/mL
same,Resistance index,[2],1.5
"COc1ccc(CNC(C)(C)CNc2ccnc3cc(Cl)ccc23)cc1OC.Cl.Cl [Example 39, N1-(7-Chloro-quinolin-4-yl)-N2-(3,4-dimethoxy-benzyl)-2-methyl-propane-1,2-diamine dihydrochloride]",IC50,[1],0.0078 µg/mL
same,IC50,[2],0.0103 µg/mL
same,Resistance index,[2],1.3
"COc1cc(CNC(C)(C)CNc2ccnc3cc(Cl)ccc23)cc(OC)c1OC.Cl.Cl [Example 41, N1-(7-Chloro-quinolin-4-yl)-N2-(3,4,5-trimethoxy-benzyl)-2-methyl-propane-1,2-diamine dihydrochloride]",IC50,[1],0.0135 µg/mL
same,IC50,[2],0.0187 µg/mL
same,Resistance index,[2],1.4
"CC(C)(CNc1ccnc2cc(Cl)ccc12)NCc1ccc2c(c1)OCO2.Cl.Cl [Example 42, N1-(7-Chloro-quinolin-4-yl)-N2-benzo[1,3]dioxol-5-ylmethyl-2-methyl-propane-1,2-diamine dihydrochloride]",IC50,[1],0.0087 µg/mL
same,IC50,[2],0.0126 µg/mL
same,Resistance index,[2],1.4
"CC(C)(CNc1ccnc2cc(Cl)ccc12)NCc1cccc2ccccc12.Cl.Cl [Example 52, N1-(7-Chloro-quinolin-4-yl)-N2-(naphthalen-1-yl-methyl)-2-methyl-propane-1,2-diamine dihydrochloride]",IC50,[1],0.0346 µg/mL
same,IC50,[2],0.0556 µg/mL
same,Resistance index,[2],1.6
"CC(C)(CNc1ccnc2cc(Cl)ccc12)NCc1ccc2ccccc2c1.Cl.Cl [Example 53, N1-(7-Chloro-quinolin-4-yl)-N2-(naphthalen-2-yl-methyl)-2-methyl-propane-1,2-diamine dihydrochloride]",IC50,[1],0.0159 µg/mL
same,IC50,[2],0.0149 µg/mL
same,Resistance index,[2],0.9
"CC(C)(CNc1ccnc2cc(Cl)ccc12)NCc1ccco1.Cl.Cl [Example 54, N1-(7-Chloro-quinolin-4-yl)-N2-(furan-2-yl-methyl)-2-methyl-propane-1,2-diamine dihydrochloride]",IC50,[1],0.0193 µg/mL
same,IC50,[2],0.029 µg/mL
same,Resistance index,[2],1.5
"CC(C)(CNc1ccnc2cc(Cl)ccc12)NCc1ccoc1.Cl.Cl [Example 55, N1-(7-Chloro-quinolin-4-yl)-N2-(furan-3-yl-methyl)-2-methyl-propane-1,2-diamine dihydrochloride]",IC50,[1],0.0078 µg/mL
same,IC50,[2],0.0145 µg/mL
same,Resistance index,[2],1.9
"CC(C)(CNc1ccnc2cc(Cl)ccc12)NCc1ccc(C(F)(F)F)cc1C(F)(F)F.Cl.Cl [Example 59, N1-(7-Chloro-quinolin-4-yl)-N2-(2,4-bis-trifluoromethyl-benzyl)-2-methyl-propane-1,2-diamine dihydrochloride]",IC50,[1],0.166 µg/mL
same,IC50,[2],0.186 µg/mL
same,Resistance index,[2],1.1
"COc1cc(CN[C@H]2CCCC[C@@H]2Nc2ccnc3cc(Cl)ccc23)cc(OC)c1OC.Cl.Cl [Example 65, (1S,2S)-N1-(7-Chloro-quinolin-4-yl)-N2-(3,4,5-trimethoxy-benzyl)-cyclohexane-1,2-diamine dihydrochloride]",IC50,[1],0.0099 µg/mL
same,IC50,[2],0.0253 µg/mL
same,Resistance index,[2],2.6
"Oc1ccccc1CN[C@H]1CC[C@@H](Nc2ccnc3cc(Cl)ccc23)CC1 [Example 78, cis-N1-(7-Chloro-quinolin-4-yl)-N4-(2-hydroxy-benzyl)-cyclohexane-1,4-diamine dihydrochloride]",inhibition in vivo at 10 mg/kg,[3]; [4],99.9%
same,inhibition in vivo at 10 mg/kg,[3]; [5],100%
